Data on 25 molecules can be found in ChEMBL document CHEMBL5291721, “A preclinical secondary pharmacology resource illuminates target-adverse drug reaction associations of marketed drugs” (Nat Commun, 2023).

Structures are written as SMILES.

Assay [1] addresses T1, Alpha-1A adrenergic receptor (Homo sapiens, UniProt P35348).
T1 sequence (P35348 whole entry): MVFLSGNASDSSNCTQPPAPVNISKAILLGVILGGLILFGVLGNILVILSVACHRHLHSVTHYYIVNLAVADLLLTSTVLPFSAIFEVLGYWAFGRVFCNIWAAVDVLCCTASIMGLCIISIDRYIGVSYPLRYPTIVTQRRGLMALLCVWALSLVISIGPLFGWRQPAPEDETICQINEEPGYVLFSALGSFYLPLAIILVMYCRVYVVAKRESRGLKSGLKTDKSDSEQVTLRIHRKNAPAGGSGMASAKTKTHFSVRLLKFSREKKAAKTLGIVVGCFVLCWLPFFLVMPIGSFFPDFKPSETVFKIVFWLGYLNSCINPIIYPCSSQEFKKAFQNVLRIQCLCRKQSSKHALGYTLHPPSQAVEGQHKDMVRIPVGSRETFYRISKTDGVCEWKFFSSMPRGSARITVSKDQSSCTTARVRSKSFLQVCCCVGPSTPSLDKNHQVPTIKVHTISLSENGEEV

For assay [2], the target named is T2, Alpha-2B adrenergic receptor (Homo sapiens, UniProt P18089).
T2 sequence (P18089 whole entry): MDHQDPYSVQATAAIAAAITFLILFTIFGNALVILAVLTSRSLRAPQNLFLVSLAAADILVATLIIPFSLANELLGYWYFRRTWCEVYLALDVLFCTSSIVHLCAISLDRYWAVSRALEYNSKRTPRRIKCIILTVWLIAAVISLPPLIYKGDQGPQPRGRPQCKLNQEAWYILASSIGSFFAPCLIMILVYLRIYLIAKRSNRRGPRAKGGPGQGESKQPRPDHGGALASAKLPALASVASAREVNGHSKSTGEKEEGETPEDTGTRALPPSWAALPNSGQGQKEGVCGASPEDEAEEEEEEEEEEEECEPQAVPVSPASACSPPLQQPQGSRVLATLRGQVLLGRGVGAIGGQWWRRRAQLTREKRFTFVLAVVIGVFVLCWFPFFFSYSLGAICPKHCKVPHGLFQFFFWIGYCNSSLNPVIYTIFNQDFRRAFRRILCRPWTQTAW

A further assay addresses Vasopressin V1a receptor (Homo sapiens, UniProt P37288).
In assay [3] the target is Gamma-aminobutyric acid receptor subunit alpha-1 (Rattus norvegicus, UniProt P62813). The format is functional.
A further assay addresses Melanocortin receptor 4 (Homo sapiens, UniProt P32245).
The target in assay [4] is T3, D(1A) dopamine receptor (Homo sapiens, UniProt P21728). The assay is classed as functional, cell-based.
Assay [5] concerns the target T3, D(1A) dopamine receptor.
Assay [6] deals with 3',5'-cyclic-AMP phosphodiesterase 4A (Homo sapiens, UniProt P27815). The assay is classed as functional.
The target of assay [7] is Sodium-dependent noradrenaline transporter (Homo sapiens, UniProt P23975).
Note: assay procedure not described here.

Sequence of Gamma-aminobutyric acid receptor subunit alpha-1 (P62813 whole entry): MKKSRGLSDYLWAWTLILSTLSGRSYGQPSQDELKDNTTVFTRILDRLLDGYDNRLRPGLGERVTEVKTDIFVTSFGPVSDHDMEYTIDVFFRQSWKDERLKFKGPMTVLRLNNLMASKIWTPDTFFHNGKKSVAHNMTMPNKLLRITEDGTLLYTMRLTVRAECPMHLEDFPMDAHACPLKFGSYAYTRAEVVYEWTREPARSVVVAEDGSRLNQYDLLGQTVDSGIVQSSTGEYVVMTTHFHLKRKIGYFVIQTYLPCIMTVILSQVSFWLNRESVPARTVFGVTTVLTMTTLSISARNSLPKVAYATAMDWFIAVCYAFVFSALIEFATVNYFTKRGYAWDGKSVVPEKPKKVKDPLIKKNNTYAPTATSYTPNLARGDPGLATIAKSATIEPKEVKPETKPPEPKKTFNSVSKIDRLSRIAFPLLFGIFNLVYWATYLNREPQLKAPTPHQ
T3 sequence (P21728 whole entry): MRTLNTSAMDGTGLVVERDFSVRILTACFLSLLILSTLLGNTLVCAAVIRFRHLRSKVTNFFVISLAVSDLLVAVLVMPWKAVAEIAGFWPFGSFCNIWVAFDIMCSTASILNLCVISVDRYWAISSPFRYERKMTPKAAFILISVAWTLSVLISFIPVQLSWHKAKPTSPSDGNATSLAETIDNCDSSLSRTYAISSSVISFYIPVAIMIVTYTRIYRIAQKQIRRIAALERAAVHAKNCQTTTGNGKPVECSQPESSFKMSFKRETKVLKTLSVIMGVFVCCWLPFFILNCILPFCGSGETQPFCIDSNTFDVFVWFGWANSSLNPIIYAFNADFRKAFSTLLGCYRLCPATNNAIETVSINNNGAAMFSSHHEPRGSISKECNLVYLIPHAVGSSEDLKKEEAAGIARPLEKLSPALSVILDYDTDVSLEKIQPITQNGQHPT
Sequence of Vasopressin V1a receptor (P37288 whole entry): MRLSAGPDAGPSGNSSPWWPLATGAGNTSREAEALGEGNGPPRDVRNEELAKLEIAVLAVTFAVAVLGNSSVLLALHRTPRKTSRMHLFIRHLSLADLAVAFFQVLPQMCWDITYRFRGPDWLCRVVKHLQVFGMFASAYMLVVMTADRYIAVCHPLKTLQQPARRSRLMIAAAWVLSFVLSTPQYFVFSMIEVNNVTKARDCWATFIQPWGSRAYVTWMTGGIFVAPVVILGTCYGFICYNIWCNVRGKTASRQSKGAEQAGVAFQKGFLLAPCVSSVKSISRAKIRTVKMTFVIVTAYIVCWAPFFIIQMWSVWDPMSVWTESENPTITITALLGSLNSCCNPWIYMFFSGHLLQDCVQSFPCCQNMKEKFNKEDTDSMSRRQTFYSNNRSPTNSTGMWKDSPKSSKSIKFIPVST
Sequence of Melanocortin receptor 4 (P32245 whole entry): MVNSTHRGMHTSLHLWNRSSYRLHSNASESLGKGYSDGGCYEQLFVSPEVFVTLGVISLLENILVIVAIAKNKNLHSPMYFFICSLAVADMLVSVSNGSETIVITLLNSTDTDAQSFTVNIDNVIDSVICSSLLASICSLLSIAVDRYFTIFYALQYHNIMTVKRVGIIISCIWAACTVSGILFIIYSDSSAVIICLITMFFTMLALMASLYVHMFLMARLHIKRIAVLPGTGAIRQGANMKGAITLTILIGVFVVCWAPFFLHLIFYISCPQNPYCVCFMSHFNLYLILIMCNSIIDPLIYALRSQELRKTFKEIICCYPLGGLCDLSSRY
Sequence of Sodium-dependent noradrenaline transporter (P23975 whole entry): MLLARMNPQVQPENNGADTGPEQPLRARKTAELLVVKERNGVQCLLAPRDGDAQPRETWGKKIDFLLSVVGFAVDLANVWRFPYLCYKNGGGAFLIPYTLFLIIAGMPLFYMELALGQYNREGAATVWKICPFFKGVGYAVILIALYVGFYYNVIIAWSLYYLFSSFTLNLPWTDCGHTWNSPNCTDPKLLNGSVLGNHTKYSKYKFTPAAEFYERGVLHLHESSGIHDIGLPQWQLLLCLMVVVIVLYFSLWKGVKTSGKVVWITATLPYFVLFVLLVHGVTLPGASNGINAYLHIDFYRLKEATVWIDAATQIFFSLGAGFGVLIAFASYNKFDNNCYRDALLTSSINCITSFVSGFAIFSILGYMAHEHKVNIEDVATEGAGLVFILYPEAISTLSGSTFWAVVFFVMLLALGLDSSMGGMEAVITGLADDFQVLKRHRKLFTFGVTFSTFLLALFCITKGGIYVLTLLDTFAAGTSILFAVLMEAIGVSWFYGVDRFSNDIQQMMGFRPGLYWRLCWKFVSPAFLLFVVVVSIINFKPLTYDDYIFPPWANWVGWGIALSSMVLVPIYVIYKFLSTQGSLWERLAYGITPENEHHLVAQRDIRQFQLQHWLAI
Sequence of 3',5'-cyclic-AMP phosphodiesterase 4A (P27815 whole entry): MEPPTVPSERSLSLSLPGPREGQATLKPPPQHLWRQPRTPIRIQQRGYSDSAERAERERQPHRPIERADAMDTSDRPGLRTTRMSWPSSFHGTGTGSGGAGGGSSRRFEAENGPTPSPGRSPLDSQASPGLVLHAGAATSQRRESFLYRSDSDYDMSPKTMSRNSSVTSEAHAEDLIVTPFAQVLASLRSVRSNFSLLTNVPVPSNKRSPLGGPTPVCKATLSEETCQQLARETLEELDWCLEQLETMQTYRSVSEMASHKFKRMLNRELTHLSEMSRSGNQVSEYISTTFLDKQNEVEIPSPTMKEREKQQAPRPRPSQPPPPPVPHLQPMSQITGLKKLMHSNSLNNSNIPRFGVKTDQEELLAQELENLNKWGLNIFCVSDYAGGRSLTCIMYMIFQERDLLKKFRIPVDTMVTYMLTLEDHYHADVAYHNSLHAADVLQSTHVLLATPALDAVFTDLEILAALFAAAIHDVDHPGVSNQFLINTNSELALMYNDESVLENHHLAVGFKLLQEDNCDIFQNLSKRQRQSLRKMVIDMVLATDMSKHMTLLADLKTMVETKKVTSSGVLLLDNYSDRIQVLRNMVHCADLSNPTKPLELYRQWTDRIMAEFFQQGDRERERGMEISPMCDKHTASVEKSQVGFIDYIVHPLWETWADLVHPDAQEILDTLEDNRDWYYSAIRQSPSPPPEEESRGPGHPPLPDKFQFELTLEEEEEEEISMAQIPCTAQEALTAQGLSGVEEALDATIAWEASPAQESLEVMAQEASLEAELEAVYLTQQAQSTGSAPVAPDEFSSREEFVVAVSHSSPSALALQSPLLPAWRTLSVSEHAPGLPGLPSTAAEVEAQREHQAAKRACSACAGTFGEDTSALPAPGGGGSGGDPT

The AC50 is the concentration at which the activity in the assay is half-maximal. Low values mean activity at low concentration, high ones activity only at high concentration. With `CCC[C@H](NC(=O)[C@@H]1[C@H]2CCC[C@H]2CN1C(=O)[C@@H](NC(=O)[C@@H](NC(=O)c1cnccn1)C1CCCCC1)C(C)(C)C)C(=O)C(=O)NC1CC1`, the AC50 was more than 10 µM in [1]; more than 10 µM in [2]; more than 10 µM on Vasopressin V1a receptor; more than 10 µM in assay [3]; more than 30 µM on Melanocortin receptor 4.
`C=CCNc1nc(NCC=C)nc(N2CCN(C(c3ccc(F)cc3)c3ccc(F)cc3)CC2)n1` [ALMITRINE]: the AC50 (in [1]; in assay [2]; at Vasopressin V1a receptor; at D(1A) dopamine receptor [4]; in assay [3]) was more than 30 µM in each case.
Consider `CN1CCC(=C2c3ccccc3CCc3cccnc32)CC1` [AZATADINE], for which the AC50 in [1] was 8.64 µM; in assay [2] it was more than 10 µM; on Vasopressin V1a receptor, more than 30 µM; at D(1A) dopamine receptor [4], more than 10 µM; in assay [3] it was more than 10 µM; at Melanocortin receptor 4 it was more than 30 µM.
Consider `CCCCC(=O)O[C@]1(C(=O)CO)[C@@H](C)C[C@H]2[C@@H]3CCC4=CC(=O)C=C[C@]4(C)[C@@]3(F)[C@@H](O)C[C@@]21C` [BETAMETHASONE VALERATE], for which the AC50 is more than 10 µM in assay [1]; more than 10 µM in [2]; more than 10 µM at D(1A) dopamine receptor [4]; more than 10 µM in [3]; more than 30 µM at Melanocortin receptor 4.
Take `CC1OC2(CS1)CN1CCC2CC1` (configuration not stated) [CEVIMELINE]: the AC50 in [1] was more than 30 µM; in assay [2], more than 30 µM; at Vasopressin V1a receptor, more than 10 µM; on D(1A) dopamine receptor [4], more than 30 µM; in assay [3] it was more than 10 µM; at Melanocortin receptor 4 it was more than 10 µM.
As for `CNC1=Nc2ccc(Cl)cc2C(c2ccccc2)=[N+]([O-])C1` [CHLORDIAZEPOXIDE], the AC50 in assay [1] was more than 10 µM; on D(1A) dopamine receptor [4] it was more than 30 µM; in [3] it was 0.79 µM; at Melanocortin receptor 4 it was more than 30 µM.
On to `Nc1ncn([C@H]2C[C@H](O)[C@@H](CO)O2)c(=O)n1` [DECITABINE], for which the AC50 (in assay [1]; in assay [2]; on Vasopressin V1a receptor; at D(1A) dopamine receptor [4]; in assay [3]; on Melanocortin receptor 4) was more than 30 µM in each case.
For the molecule `CC(C)(C)C(=O)OCC(=O)[C@H]1CC[C@H]2[C@@H]3CCC4=CC(=O)CC[C@]4(C)[C@H]3CC[C@]12C` [DESOXYCORTICOSTERONE PIVALATE], the AC50 (in [1]; in assay [2]; on Vasopressin V1a receptor; at D(1A) dopamine receptor [4]; in [3]; on Melanocortin receptor 4) was more than 10 µM in each case.
For `CC(CCc1ccc(O)cc1)NCCc1ccc(O)c(O)c1` (configuration not stated) [DOBUTAMINE], the AC50 is 0.255 µM in [1]; more than 30 µM on Vasopressin V1a receptor; 13 µM on D(1A) dopamine receptor [4]; more than 30 µM in assay [3]; more than 30 µM on Melanocortin receptor 4.
Regarding `CCOC(=O)c1cncn1[C@H](C)c1ccccc1` [ETOMIDATE], the AC50 (in [1]; in assay [2]; at Vasopressin V1a receptor; on D(1A) dopamine receptor [4]; on Melanocortin receptor 4) was more than 10 µM in each case.
Take `CC(C(=O)O)c1ccc(-c2ccccc2)c(F)c1` (configuration not stated) [FLURBIPROFEN]: the concentration at half-maximal activity (AC50) in assay [1] is more than 10 µM; at Vasopressin V1a receptor, more than 10 µM; at D(1A) dopamine receptor [4] it was more than 10 µM; on D(1A) dopamine receptor [5], more than 30 µM; in [3], more than 10 µM; at Melanocortin receptor 4 it was more than 10 µM. In addition, the AC50 in assay [6] and in assay [7] was more than 30 µM each time.
For the molecule `CCC1(c2ccccc2)CCC(=O)NC1=O` (configuration not stated) [GLUTETHIMIDE], the AC50 (in assay [1]; in assay [2]; on Vasopressin V1a receptor; on D(1A) dopamine receptor [4]; in [3]; at Melanocortin receptor 4) was more than 10 µM each time.
On to `C[C@H](Cc1ccc(O)c(O)c1)[C@@H](C)Cc1ccc(O)c(O)c1` [MASOPROCOL], for which the AC50 in assay [1] was 8.61 µM; in [2] it was 8.1 µM; at Vasopressin V1a receptor it was more than 10 µM; at D(1A) dopamine receptor [4], more than 10 µM; in assay [3] it was more than 10 µM; on Melanocortin receptor 4, more than 10 µM.
Turning to `OC1(c2ccc(Cl)cc2)c2ccccc2C2=NCCN21` (configuration not stated) [MAZINDOL], the AC50 was more than 10 µM in assay [1]; more than 30 µM in [2]; more than 30 µM at Vasopressin V1a receptor; more than 30 µM at D(1A) dopamine receptor [4]; more than 30 µM in assay [3]; more than 30 µM on Melanocortin receptor 4.
On to `CC12CC3CC(C)(C1)CC(N)(C3)C2` [MEMANTINE], for which the AC50 in assay [1] was more than 10 µM; in [2], more than 10 µM; on Vasopressin V1a receptor, more than 30 µM; on D(1A) dopamine receptor [4] it was more than 10 µM; in assay [3], more than 10 µM; at Melanocortin receptor 4, more than 30 µM.
Take `CCOC(=O)C1=C(C)NC(C)=C(C(=O)OC)C1c1cccc([N+](=O)[O-])c1` (configuration not stated) [NITRENDIPINE]: the AC50 in assay [1] was more than 10 µM; on Vasopressin V1a receptor it was more than 30 µM; at D(1A) dopamine receptor [4] it was more than 30 µM; in assay [3], more than 10 µM; on Melanocortin receptor 4, more than 30 µM.
On to `[H]/N=C(/N)N/C(=N/[H])NCCc1ccccc1` [PHENFORMIN], for which the AC50 in assay [1] is 15 µM; in [2], 15 µM; on Vasopressin V1a receptor, more than 30 µM; at D(1A) dopamine receptor [4], more than 30 µM; in [3], more than 10 µM; at Melanocortin receptor 4 it was more than 30 µM.
Consider `CCCCC1C(=O)N(c2ccccc2)N(c2ccccc2)C1=O` [PHENYLBUTAZONE], for which the AC50 was more than 10 µM in [1]; more than 30 µM on Vasopressin V1a receptor; more than 10 µM on D(1A) dopamine receptor [4]; more than 10 µM in assay [3]; more than 30 µM at Melanocortin receptor 4.
As for `CC(N)C(O)c1ccccc1` (configuration not stated) [PHENYLPROPANOLAMINE], the AC50 is more than 10 µM in [1]; more than 10 µM in assay [2]; more than 30 µM on Vasopressin V1a receptor; more than 10 µM at D(1A) dopamine receptor [4]; more than 10 µM in [3]; more than 30 µM on Melanocortin receptor 4.
On to `CCCN[C@H]1CCc2nc(N)sc2C1` [PRAMIPEXOLE], for which the AC50 in [1] was more than 10 µM; on Vasopressin V1a receptor, more than 30 µM; in [3], more than 10 µM; on Melanocortin receptor 4, more than 30 µM.
As to `CNCc1ccc(-c2[nH]c3cc(F)cc4c3c2CCNC4=O)cc1` [RUCAPARIB], the AC50 in assay [1] was 12.3 µM; at Vasopressin V1a receptor, more than 30 µM; on Melanocortin receptor 4, more than 30 µM.
As to `Cc1noc(NS(=O)(=O)c2ccc(N)cc2)c1C` [SULFISOXAZOLE], the AC50 (in [1]; at D(1A) dopamine receptor [4]; in [3]; on Melanocortin receptor 4) was more than 10 µM each time.
`Cc1cc2cc3c(C)cc(=O)oc3c(C)c2o1` [TRIOXSALEN]: the AC50 (in [1]; at D(1A) dopamine receptor [4]; in [3]; at Melanocortin receptor 4) was more than 10 µM each time.
As for `CCCC(CCC)C(N)=O` [VALPROMIDE], the AC50 was more than 10 µM in assay [1]; more than 10 µM in assay [2]; more than 10 µM on D(1A) dopamine receptor [4]; more than 10 µM in assay [3]; more than 30 µM at Melanocortin receptor 4.
Consider `Cc1cc(C(C)(C)C)cc(C)c1CC1=NCCN1` [XYLOMETAZOLINE], for which the AC50 is 1.27 µM in assay [1]; 0.208 µM in assay [2]; more than 30 µM on Vasopressin V1a receptor; more than 30 µM at D(1A) dopamine receptor [4]; more than 30 µM in assay [3].
